The values that follow come from US20150366824A1, “INDUCTION OF ESTROGEN RECEPTOR BETA BY CHOLESTEROL BIOSYNTHESIS INHIBITORS AND METHODS OF TREATMENT OF CANCER” (THE CURATORS OF THE UNIVERSITY OF MISSOURI, priority 2012, published 2015).

Each structure is given as a SMILES string.

The test system of data set [1] is BT-474 cells. Description: Sulforhodamine B (SRB) cell viability assay with ERβ-specific ligands. Conditions: for cell viability: Ro 48-8071 combined with ERβ agonist DPN: BT-474, 10 nM Ro 48-8071 ± 1 nM DPN, 48 h; for cell viability: Ro 48-8071 combined with ERβ antagonist PHTPP: BT-474, 10 nM Ro 48-8071 ± 10 or 100 nM PHTPP, 24 h. The class given is cell-based, human. On the procedure:
FIG. 6. […] BT-474 cells were treated with 10 nM Ro 48-8071±1 nM DPN, or with DPN alone. Cell viability was determined after 48 h using the SRB assay.
FIG. 7. […] BT-474 cells treated with 10 nM Ro 48-8071 for 24 h±10 or 100 nM PH, or with PHTPP alone. Cell viability was determined after 24 h as described previously. […] The anti-proliferative effects of Ro 48-8071 in breast cancer cells is reduced when it is combined with ERβ antagonist.
The sulforhodamine B (SRB) assay was employed to evaluate the effect potent cholesterol biosynthesis inhibitor Ro 48-8071 alone or in combination with ERβ-specific ligands on viability of breast cancer cells, with slight modification of the original procedure established at NCI. Ro 48-8071, and ERβ-specific ligands (either an agonist DPN (diarylpropionitrile), or an antagonist PHTPP (4-[2-phenyl-5,7-bis(trifluoromethyl) pyrazolo[1,5-a]pyrimidin-3-yl]phenol)) (“PH”) were used in BT-474, T47-D, MDA-MB-231, and BT-20 human breast cancer cells in this study.
Accordingly, cells were seeded in 96-well plates in 100 μL culture medium and incubated overnight at 37° C. with 5% CO2. Culture medium was removed after 24 h, and the attached cells were washed with DMEM/F12 medium and treated by Ro 48-8071 alone or with ERβ-specific ligands at various concentrations for 24-48 hrs. […]
The surviving or adherent cells were fixed in situ by withdrawing the growth medium and adding 100 μL of PBS and 100 μL of 50% cold trichloroacetic acid and then incubating at 4° C. for 1 h. Attached cells (that had survived) were washed 5 times with ice-water, dried at room temperature (RT), and then stained with 50 μL […] SRB for 8 min at room temperature (RT). Unbound dye was removed by washing 5 times with cold 1% acetic acid, and the plates were dried at RT. Bound stain was solubilized with 150 μL 10 mM Tris buffer, and absorbance of samples measured at 520 nm with a SpecTRA MAX 190 microplate reader (Sunnyvale, Calif.). Six wells were used for each concentration, and each experiment was performed at least twice.

In data set [2] the target is T1, OSC (Homo sapiens, UniProt P48449).
T1 sequence (P48449 1-732): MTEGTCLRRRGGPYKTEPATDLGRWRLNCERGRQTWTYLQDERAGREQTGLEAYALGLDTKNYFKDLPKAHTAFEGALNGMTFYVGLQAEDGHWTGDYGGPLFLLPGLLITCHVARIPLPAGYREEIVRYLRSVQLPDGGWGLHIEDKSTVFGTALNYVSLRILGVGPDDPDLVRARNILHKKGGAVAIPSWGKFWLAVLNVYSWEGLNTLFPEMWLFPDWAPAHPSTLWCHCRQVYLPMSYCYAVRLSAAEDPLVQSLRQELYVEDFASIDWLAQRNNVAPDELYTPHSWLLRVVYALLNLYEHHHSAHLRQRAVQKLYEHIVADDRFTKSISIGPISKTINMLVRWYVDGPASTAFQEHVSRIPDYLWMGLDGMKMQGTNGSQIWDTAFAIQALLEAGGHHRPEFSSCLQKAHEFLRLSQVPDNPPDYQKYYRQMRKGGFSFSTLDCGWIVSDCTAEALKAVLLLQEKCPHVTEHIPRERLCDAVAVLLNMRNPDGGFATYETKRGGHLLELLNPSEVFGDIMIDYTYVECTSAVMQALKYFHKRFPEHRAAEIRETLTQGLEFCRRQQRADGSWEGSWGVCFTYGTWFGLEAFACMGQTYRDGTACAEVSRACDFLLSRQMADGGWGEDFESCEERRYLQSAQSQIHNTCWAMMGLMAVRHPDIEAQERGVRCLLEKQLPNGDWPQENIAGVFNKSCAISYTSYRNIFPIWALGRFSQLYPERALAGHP
Conditions: cited from earlier work.

The subject of data set [3] is T47-D cells. Description: SRB cell viability assay after ERβ siRNA knockdown. The class given is cell-based, human. Conditions: 60 nM ERβ siRNA, Ro 48-8071 10 nM, 48 h. The method, then:
FIG. 5. […] T47-D cells were treated with either ERβ siRNA (30 and 60 nM; siERβ, Santa Cruz), scrambled RNA (siC) or transfection reagent alone (C) for 72 h (upper panel). In the group treated with 60 nM siRNA, cells were treated with Ro 48-8071 (10 nM) or vehicle alone (C) for 48 h (lower panel) and tumor cell viability was determined using SRB assay as described.
ERβ siRNA (human) and control siRNA were obtained from Santa Cruz Biotechnology, Inc. (Santa Cruz, Calif., e.g. catalog no.s SC-35325 and SC-37007). ERβ siRNA is a pool of 3 target-specific 20-25 nt siRNA designed to knock down ERβ gene expression.
Transfection reagent, oligonucleotides and medium, Opti-MEM were from Invitrogen (Carlsbad, Calif.). The day before transfection, cells were seeded in six-well plates at a density of 8×10̂4 cells per well with 10% FBS DMEM/F12 medium.
To make solution A, ERβ siRNA was diluted in Opti-MEM, resulting in a final concentration of 30 or 60 nM in 100 μl/well and incubate for 5 min at room temperature (RT). […]
The surviving or adherent cells were fixed in situ by withdrawing the growth medium and adding 100 μL of PBS and 100 μL of 50% cold trichloroacetic acid and then incubating at 4° C. for 1 h. […] Bound stain was solubilized with 150 μL 10 mM Tris buffer, and absorbance of samples measured at 520 nm with a SpecTRA MAX 190 microplate reader (Sunnyvale, Calif.). […]

The subject of data set [4] is ERα. Description: Western blot analysis of ERα protein in breast cancer cells. The class given is cell-based, human. Conditions: for expression of ERα protein: treatment for six hours, dose-dependent. The method, then: (§1) Cells used in these experiments included both the ERα+ve as well as ERα-ve cells, including triple negative types which are very aggressive growing. The ERα+ve cells used were T47-D and BT-474 cells. The ERα-ve cells used were MDA-MB-231, BT-20 and SkBr-3 cells. All cells were grown in media as specified in the data sheet from A TCC, provider of cell lines.
(§2) Whole cell extracts of breast cancer cells were prepared using a whole cell extract kit (Active Motif, Carlsbad, Calif.). Briefly, after treatment with Ro 48-8071, cells were washed once with PBS, harvested with 0.05% trypsin-EDT A, and centrifuged at 200 g at 4° C. for 5 min. Cell pellets were resuspended in lysis buffer and supernatant was transferred into pre-chilled microcentrifuge tubes and incubated on ice for 30 minutes. Samples were centrifuged at 14,000×g at 4° C. for 20 minutes, and supernatant was transferred to pre-chilled microcentrifuge tubes. Aliquots of samples were stored at −80° C. For western blot analysis, samples containing 50 μg of protein were separated in a NuPAGE 10% Bis-Tris Gel (Invitrogen, Carlsbad, Calif.).
(§3) Electrophoresis was performed at 120 V for 2 h using NuPAGE MES-SDS Running Buffer. Separated proteins were transferred to polyvinylidene difluoride membranes (BioRad Laboratories, Hercules, Calif.) at 35 V for 1.5 h.
(§4) Blots were blocked at room temperature (RT) for 1 hr in TBS containing 0.1% Tween 20 (TBS-T) and 5% nonfat dry milk and incubated with antibodies for ERα (dilution 1:200) for 2 h at room temperature, and ERβ (dilution 1:150) at 4° C. overnight. Blots were washed 3 times with TBS-T and incubated with secondary antibody for 1 h at RT before being washed a further 7 times with TBS-T.
(§5) Immunoreactive bands were visualized using an ECL Plus detection kit (Amersham, Pharmacia Biotech, Arlington Heights, Ill.). Membranes were stripped and re-blotted for beta-actin (Sigma), which was used as a control for protein loading. β-actin was used as a loading control to determine amount of total protein loaded in each lane.

The test system of data set [5] is human breast cancer xenografts. Description: Human breast cancer xenografts in nude mice. The class given is in vivo. On the procedure: Female athymic nu/nu nude mice, 5 to 6 weeks-old (18-22 g) may be purchased from a number of suppliers, such as Harland Sprague-Dawley, Inc. Nude mice are inoculated with 17β-estradiol pellets (1.7 mg/pellet, 60 days release) 48 hours before inoculating tumor cells. BT-474 human breast cancer cells, 5×10^6 in 0.15 ml solution mixed with matrigel and DMEM/F12 medium (4/1, v/v) are injected into each flank of mouse subcutaneously and both flanks of each mouse are injected. When tumor volume reaches around 100 mm3, animal are randomly assigned to three groups and the treatment started with RO 48-8071 (5 mg/kg/day or 10 mg/kg/day) via tail-vein injection for five days, followed by same treatment every other day for five additional times Animals in control group receive the vehicle alone under identical conditions. Tumor volumes are measured by a digital caliper and calculated using the formula (L×W×H)×0.5236.

Data set [6] concerns ERβ. Put plainly: Western blot analysis of ERβ protein in breast cancer cells. To be noted: for expression of ERβ protein: treatment for six hours, dose-dependent. The class given is cell-based, human. On the procedure: as §1, §2, §3, §4, §5
On the technique in general: In western blotting, separated proteins are transferred to a membrane and probed.

The subject of data set [7] is Bcl-2. Put plainly: Western blot analysis of Bcl-2 protein in T47-D breast cancer cells. The class given is cell-based, human. Conditions: treatment for six hours.
The mark [8] stands for this setting: low dose, 10 or 100 nM, seven days.

Take `N#CC(Cc1ccc(O)cc1)c1ccc(O)cc1` (stereo not drawn) [DPN, 2,3-bis(4-hydroxyphenyl)-propionitrile]: the “cell viability: Ro 48-8071 combined with ERβ agonist DPN” value in data set [1] was “potentiates the ability of Ro 48-8071 to reduce viability”.

With `Oc1ccc(-c2c(-c3ccccc3)nn3c(C(F)(F)F)cc(C(F)(F)F)nc23)cc1` [PHTPP, 4-[2-phenyl-5,7-bis(trifluoromethyl)pyrazolo[1,5-a]pyrimidin-3-yl]phenol], the “cell viability: Ro 48-8071 combined with ERβ antagonist PHTPP” value in data set [1] is given as “blocks the anti-proliferative effect of Ro 48-8071”.

Turning to `C=CCN(C)CCCCCCOc1ccc(C(=O)c2ccc(Br)cc2)c(F)c1` [Ro 48-8071, (4-bromophenyl)[2-fluoro-4-[[6-(methyl-2-propenylamino)hexyl]oxy]phenyl]-methanone], the “OSC inhibition in words” value in data set [2] is recorded as “potent inhibitor of OSC”. In addition, the “tumor cell viability: effect of ERβ knockdown on the anti-proliferative effect” value in data set [3] is “blocked the anti-proliferative effect”. Further, the “expression of ERα protein” value in data set [4] (BT-474 breast cancer cells) and in data set [4] (T47-D breast cancer cells) was “suppressed” throughout. Further, in data set [4] (setting [8]), the “expression of ERα” value was “suppressed”. For the same compound, the “growth of human breast cancer xenografts” value in data set [5] was “inhibit growing of human breast cancer xenografts”. In addition, the “toxicity in xenograft-bearing nude mice” value in data set [5] is on record as “without toxicity”. For the same compound, in data set [1], the “cell viability: Ro 48-8071 combined with ERβ agonist DPN” value is “increased cell death more effectively (additively)”. In addition, the “cell viability: Ro 48-8071 combined with ERβ antagonist PHTPP” value in data set [1] was “reduced”. The “expression of ERβ protein” value in data set [6] (BT-474 breast cancer cells) and in data set [6] (T47-D breast cancer cells) was “induced” each time. The “expression of ERβ” value is reported as “stimulates expression of ERβ” in data set [6] (ERα-negative (triple-negative) BT-20 cells), “stimulates expression of ERβ” in data set [6] (ERα-negative (triple-negative) MDA-MB-231 cells) and “induced” in data set [6] (setting [8]). For the same compound, the “expression of Bcl-2 protein” value in data set [7] is recorded as “decreased with increasing dose”.

As for `CCN(CC)CCO[C@H]1CC[C@@]2(C)C(=CC[C@@H]3[C@@H]2CC[C@]2(C)C(=O)CC[C@@H]32)C1` [U18666A, 3-beta-(2-(diethylamino)ethoxy)androst-5-en-17-one], in data set [2], the “OSC inhibition in words” value was “potent inhibitor of OSC”.
